Consider 3 molecules from US20250255994A1, “DIMERIC IMMUNOCONJUGATES FOR USE IN TREATING CANCERS AND METHODS OF USE” (Medicovestor, Inc., priority 2023, published 2025).

Data set [1] concerns SK-OV-3 cells. As to the kind of experiment: SK-OV-3 cytotoxicity assay (luminescence), Example 4. The note with it: 5 or 6 additional days; for Max Cytotoxicity: FIG. 9 axis: percent cytotoxicity. On the procedure:
SK-OV-3 cells were seeded at 1000, 2000, or 3000 cells per well and incubated overnight in advance of a cytotoxicity assay. […] The SK-OV-3 cells were treated with various concentrations of the SP17-AB2 antibody, the SP17-AB2-DXD immunoconjugate, a control human IgG4 antibody (hIgG4), or deruxtecan alone (DXD). The cells were incubated for 5 or 6 additional days, and cytotoxicity was then measured using a luminescence assay and En Vision™ plate reader (PerkinElmer, Massachusetts, United States).

Another data set has as its system ID8 cells. The experiment in a line: ID8 cytotoxicity assay, Example 4. The format is cell-based, mouse. The note with it: 3 additional days, FIG. 10 axis: percent cytotoxicity. On the procedure: […] The cells were then treated with various concentrations of either the SP17-AB2 antibody, the SP17-AB2-DXD immunoconjugate, hIgG4, or deruxtecan alone. The cells were incubated for 3 additional days, and then cytotoxicity was measured.

Data set [2] deals with SK-OV-3 cells. The experiment in a line: SK-OV-3 cytotoxicity assay (luminescence), Example 9. Type of data set: cell-based, human. The note with it: SK-OV-3 cells at 2000 cells/well; five additional days. How it is done: The SK-OV-3 cells are then treated with various concentrations of (1) the SP17-AB2 antibody, (2) the SP17-AB2-DXD immunoconjugate, (3) the SP17-AB2-Ozogamicin immunoconjugate, (4) both the SP17-AB2-DXD immunoconjugate and the SP17-AB2-Ozogamicin, (5) the dSP17-AB2-DXD/Ozogamicin immunoconjugate, (6) hdSP17-AB2, (7) hIgG4, or (8) deruxtecan. […] IC50s and maximum cytotoxicity are then determined.
The IC50 of (4) the combination of SP17-AB2-DXD and SP17-AB2-Ozogamicin is determined based on the concentration of SP17-AB2-DXD and SP17-AB2-Ozogamicin individually and not based on the combined concentration. For example, when SK-OV-3 cells are incubated at a concentration of SP17-AB2-DXD and SP17-AB2-Ozogamicin of 128 nanomolar each, then the IC50 is calculated based on the 128 nanomolar concentration (and not the 256 nanomolar combined concentration) so that 128 nanomolar of (4) SP17-AB2-DXD and SP17-AB2-Ozogamicin contains about the same concentration of deruxtecan, ozogamicin, and antigen-binding sites as 128 nanomolar of (5) the dSP17-AB2-DXD/Ozogamicin immunotherapeutic.

For data set [3], the target named is T1, recombinant 6His-Sp17 protein (human, UniProt Q15506 1-151).
T1 construct: Analyte of the surface plasmon resonance experiment; not shown: 6His tag
T1 sequence (looked up): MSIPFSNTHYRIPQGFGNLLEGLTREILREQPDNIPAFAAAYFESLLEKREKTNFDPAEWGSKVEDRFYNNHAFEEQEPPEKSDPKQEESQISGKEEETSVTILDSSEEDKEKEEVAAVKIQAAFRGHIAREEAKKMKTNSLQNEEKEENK
The experiment in a line: surface plasmon resonance, 6His-Sp17 at 6.25-300 nanomolar as analyte. The text has this:
(§1) The lines correspond, from highest to lowest, to fitted cycles for 300 nanomolar, 100 nanomolar, 50 nanomolar, 25 nanomolar, 12.5 nanomolar, and 6.25 nanomolar concentrations of 6His-Sp17.
(§2) The nucleotide sequences encoding the VH and VL regions of Example 1 were cloned into a […] heavy chain gene and a mouse kappa light chain gene, respectively, and expressed in CHO-S cells to produce a mouse-human chimeric antibody, which was named chAB2. Successful generation of the antibody was confirmed by SDS-PAGE and western blotting using anti-mouse heavy and light chain antibodies and recombinant Sp17 protein (FIGS. 2 & 3). The chAB2 antibody was reactive to mouse surface Sp17 protein expressed on the mouse ovarian cancer cell line ID8 (FIG. 4).

The target of data set [4] is T1, recombinant 6His-Sp17 protein. As to the kind of experiment: surface plasmon resonance (Biacore T200), 6His-Sp17 at 6.25-300 nanomolar as analyte.
Description: as §1, §2
Background: SPR reads the build-up and loss of mass on a sensor chip optically.

Data set [5] addresses T2, recombinant 6His-Sp17 protein (Homo sapiens, UniProt Q15506).
T2 construct: 6His
T2 sequence (Q15506 1-151): T1 sequence (looked up)
The experiment in a line: Surface plasmon resonance (Biacore T200) of chAB2 binding to Sp17. The note with it: SPR.
Description: as §1
(§3) The nucleotide sequences encoding the VH and VL regions of Example 1 were cloned into a […] heavy chain gene and a mouse kappa light chain gene, respectively, and expressed in CHO-S cells to produce a mouse-human chimeric antibody, which was named chAB2. Successful generation of the antibody was confirmed by SDS-PAGE and western blotting using anti-mouse heavy and light chain antibodies and recombinant Sp17 protein (FIGS. 2 & 3).

Data set [6] deals with T3, mouse surface Sp17 protein expressed on the mouse ovarian cancer cell line ID8 (Mus musculus, UniProt Q62252).
T3 construct: mouse surface Sp17 protein expressed on the mouse ovarian cancer cell line ID8; endogenous in cells; host or cells: ID8 mouse ovarian cancer cells
T3 sequence (Q62252 1-149): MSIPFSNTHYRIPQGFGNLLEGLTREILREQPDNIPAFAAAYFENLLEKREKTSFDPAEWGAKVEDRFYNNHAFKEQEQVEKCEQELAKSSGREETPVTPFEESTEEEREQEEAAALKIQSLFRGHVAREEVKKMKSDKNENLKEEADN
As to the kind of experiment: Flow cytometry of ID8 cells labeled with chAB2 and anti-mouse FITC antibody. The note with it: relative to anti-mouse FITC antibody alone. The format is cell-based. How it is done:
FIG. 4 consists of three panels. The left panel is a graph that depicts flow cytometry results for ID8 cells incubated with an anti-mouse fluorescein isothiocyanate (FITC) antibody, but without a primary antibody. The middle panel is a graph that depicts flow cytometry results for ID8 cells labeled with the anti-Sp17 antibody chAB2 and the anti-mouse FITC antibody.
as §3
In general terms: In flow cytometry, cells or beads pass a laser one at a time.

In a further data set the test system is 33 normal human tissues. As to the kind of experiment: Immunohistochemistry on a normal tissue microarray (specificity). The format is binding. How it is done: The specificity of the chAB2 antibody for Sp17 was determined with immunohistochemistry on a normal tissue microarray, which consisted of 33 normal tissues obtained from 2-3 human donors per tissue. The normal tissues included brain, eye, adrenal gland, hypophyseal, thyroid, parathyroid, tonsil, thymus, spleen, heart, lung, larynx, esophagus, stomach, small intestine, colon, liver, pancreas, salivary gland, kidney, bone, skeletal, skin, peripheral nerve, mesothelial, breast, ovary, endometrium, cervix, testis, and prostate.

Where [7] appears, read: SK-OV-3 cells at 1000 cells/well.
The mark [8] stands for this setting: SK-OV-3 cells at 2000 cells/well.
Setting [9] is: SK-OV-3 cells at 3000 cells/well.

“Also recorded” adds a separate entry of the source. Starred links: 1 amine or outer side, 2 acyl side, 3 side chain; linkers in the order of their positions; H or OH if unused. Non-standard residues stand in square brackets, D forms with d. Residues, ends and D or L forms follow the SMILES beside them. *: point of attachment. Exatecan = CC[C@@]1(O)C(=O)OCc2c1cc1n(c2=O)Cc2c-1nc1cc(F)c(C)c3c1c2[C@@H](N*)CC3; Hexanoyl(6-maleimido) = O=C1C=CC(=O)N1CCCCCC(=O)*; NHCH2OCH2CO = O=C(COCN[*:1])[*:2]

Consider `CC[C@@]1(O)C(=O)OCc2c1cc1n(c2=O)Cc2c-1nc1cc(F)c(C)c3c1c2[C@@H](NC(=O)COCNC(=O)CNC(=O)[C@H](Cc1ccccc1)NC(=O)CNC(=O)CNC(=O)CCCCCN1C(=O)C=CC1=O)CC3` [deruxtecan] ({Hexanoyl(6-maleimido)}-GGFG[NHCH2OCH2CO]-Exatecan), for which the IC50 – broadly, the concentration at which inhibition is half-maximal – in the data set with SK-OV-3 cells [1] (setting [7]) came out at 0.75 nM; with SK-OV-3 cells [1] (setting [8]) it was 1.1 nM; in the data set with SK-OV-3 cells [1] (setting [9]) it was 1.2 nM. Moreover, the “Max Cytotoxicity” value in the data set with SK-OV-3 cells [1] (setting [7]) came to 98; in the data set on SK-OV-3 cells [1] (setting [8]), 97; in the data set with SK-OV-3 cells [1] (setting [9]), 97; with ID8 cells (ID8 cells at 250 cells/well) it was 94; in the data set on ID8 cells (ID8 cells at 500 cells/well) it was 93; in the data set on SK-OV-3 cells [2], 97.

B1: mouse-human chimeric anti-Sp17 IgG2a/kappa monoclonal antibody chAB2 (antibody, V domains shown)
VH: QVQLQQSGAEVKKPGSSVKVSCKASGGTFSSYAISWVRQAPGQGLEWMGRIIPILGIANYAQKFQGRVTITADKSTSTAYMELSSLRSEDTAVYYCARPSEEVVAAYGAFDIWGQGTTVTVSS
VL: EIVLTQSPLSLPVRPGEPASISCRASQSLLRSDGFNYLDWYLQKPGQSPQLLVYLGSNRASGVPDRFSGSGSGTDFTLKISRVEAEDVGVYYCMQAVQTPYIFGQGTKLEIK
notes: also called chimeric antibody; anti-Sp17 antibody chAB2
Take B1: in data set [3], the koff (usually a measure of how fast the partners let go of each other) turned out to be 0.00013 s⁻¹ and the kon (commonly a measure of how fast the partners come together) came out at 62600 M⁻¹ s⁻¹. For the same molecule, the Kd – broadly, the free concentration of one partner at which half of the binding sites on the other are occupied at equilibrium, for simple one-to-one binding – in data set [4] came out at 2.07 nM.

B2: chAB2: mouse-human chimeric anti-Sp17 antibody: human VH/VL in mouse IgG2a heavy chain and mouse kappa light chain, expressed in CHO-S cells (antibody, V domains shown)
VH: B1 VH
VL: B1 VL
Regarding B2, the “association rate constant (ka)” value in data set [5] (6.25-300 nanomolar 6His-Sp17) is listed as 62,600 per mole per second. In addition, the Kd in data set [5] (read-out: dissociation constant (KD)) is roughly 2 nM. Moreover, in data set [6], the “reactivity to surface Sp17 on ID8 cells (mean fluorescent intensity)” value is “reactive to mouse surface Sp17 protein; also recorded: increased mean fluorescent intensity”. In addition, in the data set on 33 normal human tissues (33 normal tissues, 2-3 human donors per tissue), the “binding to / cross-reactivity with normal tissues (immunohistochemistry)” value was “lack detectable cross-reactivity; also recorded: did not bind to normal tissues”. Besides, in the data set with 33 normal human tissues (testis tissue), the “binding to testis (immunohistochemistry)” value is reported as “bound to testis”.
